Experimental data: PubChem BioAssay (NCI)
“And” between values parts separate entries of the source, which are not always exact repeats. Identical values can stand only once.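 Exposure lasted 48 hours, with cells grown in 96-well plates and compounds tested at five concentrations. At the GI50, growth is halved. The concentration for full growth arrest is given as TGI.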

How the values were obtained:
Test in all cases: NCI-60 cell line screen, 48 h
HCC-2998 colon = tested on: HCC-2998 colon
SF-539 CNS = tested on: SF-539 CNS
786-0 renal = tested on: 786-0 renal
TK-10 renal = tested on: TK-10 renal
SK-OV-3 ovarian = tested on: SK-OV-3 ovarian
CCRF-CEM leukemia = tested on: CCRF-CEM leukemia
OVCAR-3 ovarian = tested on: OVCAR-3 ovarian
MDA-MB-435 = tested on: MDA-MB-435
MDA-MB-231 breast = tested on: MDA-MB-231 breast
PC-3 prostate = tested on: PC-3 prostate

Compound	TGI (HCC-2998 colon)	TGI (SF-539 CNS)	TGI (786-0 renal)	TGI (TK-10 renal)	TGI (SK-OV-3 ovarian)	TGI (CCRF-CEM leukemia) [µM]	TGI (OVCAR-3 ovarian)	GI50 (HCC-2998 colon)	GI50 (SF-539 CNS)	GI50 (786-0 renal)	GI50 (MDA-MB-435)	TGI (MDA-MB-435) [µM]	GI50 (TK-10 renal)	GI50 (SK-OV-3 ovarian) [µM]	GI50 (CCRF-CEM leukemia)	GI50 (OVCAR-3 ovarian)	GI50 (MDA-MB-231 breast)	TGI (MDA-MB-231 breast)	GI50 (PC-3 prostate)	TGI (PC-3 prostate)
COC(=O)c1cccn1C(=O)n1cccc1	> 100 µM	> 100 µM	> 100 µM	> 100 µM	> 100 µM	> 100	> 100 µM	–	–	–	–	–	–	–	–	–	–	–	–	–
COc1cc(C(=O)N2CCN(c3ncnc4ccccc34)CC2)c(N)cc1OCc1ccccc1	30.3 µM	33.2 µM	26.2 µM	51.1 µM	49 µM	58.1	25 µM	16.6 µM	18.6 µM	12.9 µM	13.1 µM	27.4	20 µM	20.9	23.8 µM	11.8 µM	13.9 µM	35.3 µM	15.4 µM	43.2 µM
Nc1nnnn1CCO	–	> 100 µM	> 100 µM	> 100 µM	> 100 µM	–	> 100 µM	–	–	–	–	> 100	–	–	–	–	–	> 100 µM	–	> 100 µM
O=C(Nc1ccncc1)C(=O)c1cn(S(=O)(=O)c2ccc(Cl)cc2)c2ccccc12	> 100 µM	12.5 µM	45.2 µM	38.4 µM	73.8 µM	> 100	9.44 µM	10.3 µM	0.696 µM	3.5 µM	0.106 µM	0.521	11.5 µM	19.6	3.18 µM	0.538 µM	3.69 µM	32.3 µM	1.4 µM	> 55.5 µM
O=C(CCN1CCN(c2ccccc2)CC1)N1CCc2c([nH]c3ccccc23)C1c1cccnc1 (stereo unspecified)	36.1 µM	35.4 µM	29.5 µM	18.8 µM	33.7 µM	69.7	30.7 µM	–	–	–	–	–	–	–	–	–	–	–	–	–
CC(=O)OC[C@@H](COC(=O)/C=C/c1ccc(O)cc1)OC1OC(CO)C(O)C(O)C1O (stereo partly specified)	> 100 µM	> 100 µM	> 100 µM	> 100 µM	> 100 µM	> 100	> 100 µM	–	–	–	–	–	–	–	–	–	–	–	–	–
CCOC(=O)N1CCC(=O)C(CNC23CC4CC(CC(C4)C2)C3)C1 (stereo unspecified)	–	> 100 µM	29.4 µM	> 100 µM	> 100 µM	35.9	–	–	–	–	–	–	–	–	–	–	–	–	–	–
C[n+]1c2cc(N)ccc2cc2ccc(N)cc21	3.43 µM [middle of 4 runs]	3.69 µM [middle of 4 runs]	–	9.33 µM [middle of 4 runs]	–	–	7.45 µM [middle of 4 runs]	925 nM [middle of 4 runs]	1.33 µM [middle of 4 runs]	1.33 µM [middle of 4 runs]	1.62 µM [middle of 4 runs]	–	1.43 µM [middle of 4 runs]	–	2.1 µM [middle of 4 runs]	1.58 µM [middle of 4 runs]	1.41 µM [middle of 4 runs]	9.68 µM [middle of 4 runs]	696 nM [middle of 4 runs]	5.8 µM [middle of 4 runs]
[N-]=[N+]=NCCCCCC(=O)OC(C(=O)c1ccccc1)c1cccc(OCC(=O)NCCOCCOCCNC(=O)CCCC[C@@H]2SC[C@@H]3NC(=O)N[C@@H]32)c1 (stereo partly specified)	> 100 µM	72.7 µM	> 100 µM	> 100 µM	> 100 µM	> 100	–	39.6 µM	25.3 µM	> 100 µM	50.6 µM	> 100	> 100 µM	> 100	52.2 µM	–	44 µM	> 100 µM	> 100 µM	> 100 µM
NCCOCCOCCNc1nc(-c2ccccc2)nc(N2CCN(c3ccccn3)CC2)n1	22.3 µM	33.1 µM	26 µM	–	34.2 µM	33.2	30.4 µM	8.86 µM	17.6 µM	12.6 µM	11.4 µM	24.5	–	18.8	14.3 µM	16.6 µM	14.5 µM	28.8 µM	15.7 µM	30.8 µM
CC(=O)C1C(c2ccc(N(C)C)cc2)c2cc3c(cc2OC1(C)O)OCO3 (stereo unspecified)	–	–	> 100 µM	> 100 µM	> 100 µM	> 100	> 100 µM	–	–	–	–	–	–	–	–	–	–	–	–	–
O=C(c1ccccc1)C1OC12C(=O)Nc1c(Cl)cc(Cl)cc12 (stereo unspecified)	> 100 µM	> 100 µM	> 100 µM	> 100 µM	> 100 µM	27.2	> 100 µM	–	–	–	–	–	–	–	–	–	–	–	–	–
O=C(Nc1ccc(Cl)c(Cl)c1)Nc1c(Oc2ccc(Cl)c(Cl)c2)ccc(Cl)c1S(=O)(=O)O	> 100 µM	–	29.8 µM	–	–	> 100	–	2.11 µM	–	3.05 µM	–	–	–	–	4.03 µM	–	1.98 µM	66.8 µM	3.59 µM	> 100 µM
CCC/C(=N\NC(=S)N1CC2CCC(CC2)C1)c1ccccn1	1.48 µM and 1.86 µM	1.55 µM and 5.36 µM	1.19 µM and 2.55 µM	5.84 µM and 2.9 µM	2.13 µM and 2.31 µM	–	0.872 µM and 0.622 µM	0.244 µM	1.16 µM	1.25 µM	–	3.24	–	1.1	–	0.0246 µM	–	2.75 µM	–	1.39 µM
Nc1nc2c(ncn2C2C=CC(CO)C2)c(=O)[nH]1 (stereo unspecified)	> 100 µM	> 100 µM	> 100 µM	> 100 µM	> 100 µM	–	> 100 µM	–	–	–	–	> 100	–	–	–	–	–	> 100 µM	–	> 100 µM
CC12CCC3(OCCO3)C(OC(=O)c3ccccc3)=C1CCC21OCCO1 (stereo unspecified)	> 100 µM	> 100 µM	> 100 µM	> 100 µM	> 100 µM	> 100	> 100 µM	–	–	–	–	–	–	–	–	–	–	–	–	–
CCC[CH2][Sn]1([CH2]CCC)[O]CC(CN(C)Cc2ccccc2)[O]1 (stereo unspecified)	23.3 µM	20.6 µM	16.4 µM	11.4 µM	33.2 µM	8.09	18.4 µM	11 µM	7.2 µM	4.41 µM	–	–	3.63 µM	15.6	2.37 µM	6.35 µM	–	–	–	–
COc1ccc2c(=O)cc(C(Cl)(Cl)Cl)oc2c1	11.3 µM	0.583 µM	14.1 µM	40.4 µM	31.5 µM	–	–	0.4 µM	0.208 µM	0.324 µM	–	–	8.36 µM	0.511	0.309 µM	–	0.333 µM	14.9 µM	0.39 µM	18.9 µM
